Data published in PubChem BioAssay (NCI).
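A five-concentration, 48-hour dose response in 96-well plates underlies each endpoint, interpolated linearly between surrounding concentrations. TGI marks complete inhibition of growth.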

Experiments:
Experiment in all cases: NCI tumour cell line growth inhibition, 48 h
[1] = system: SK-MEL-2 melanoma
[2] = system: HL-60(TB) leukemia
[3] = system: SF-539 CNS
[4] = system: HOP-62 NSCLC
[5] = system: CCRF-CEM leukemia
[6] = system: HOP-18 NSCLC
[7] = system: KM20L2 colon
[8] = system: DMS 114 small cell lung
[9] = system: RXF 393 renal
[10] = system: OVCAR-8 ovarian
[11] = system: HT29 colon
[12] = system: U251 CNS
[13] = system: DLD-1 colon
[14] = system: UO-31 renal
[15] = system: SR leukemia
[16] = system: NCI-H522 lung
[17] = system: EKVX NSCLC
[18] = system: SK-OV-3 ovarian
[19] = system: KM12 colon
[20] = system: M19-MEL melanoma
[21] = system: SNB-19 CNS
[22] = system: SW-620 colon
[23] = system: 786-0 renal
[24] = system: TK-10 renal
[25] = system: A498 renal
[26] = system: LXFL 529 NSCLC
[27] = system: HCT-116 colon
[28] = system: NCI-H226 lung
[29] = system: XF 498 CNS
[30] = system: OVCAR-3 ovarian
[31] = system: SN12C renal
[32] = system: UACC-62 melanoma
[33] = system: DMS 273 small cell lung
[34] = system: ACHN renal
[35] = system: OVCAR-5 ovarian
[36] = system: M14 melanoma
[37] = system: SNB-75 CNS
[38] = system: HOP-92 NSCLC
[39] = system: MOLT-4 leukemia
[40] = system: SF-295 CNS
[41] = system: K-562 leukemia
[42] = system: A549 NSCLC
[43] = system: MALME-3M melanoma
[44] = system: NCI-H23 lung
[45] = system: RPMI-8226 leukemia
[46] = system: LOX IMVI melanoma
[47] = system: SNB-78 CNS
[48] = system: SK-MEL-28 melanoma
[49] = system: UACC-257 melanoma
[50] = system: COLO 205 colon
[51] = system: HCC-2998 colon
[52] = system: SF-268 CNS
[53] = system: CAKI-1 renal
[54] = system: OVCAR-4 ovarian
[55] = system: SK-MEL-5 melanoma
[56] = system: HCT-15 colon
[57] = system: IGROV1 ovarian
[58] = system: NCI-H460 lung
[59] = system: RXF-631 renal

Compound: COc1ccc2c(C(=O)O)cc3ccccc3c2c1OC
- TGI [1]: 94.9 µM
- TGI [2]: > 100 µM
- TGI [3]: 57.7 µM
- TGI [4]: > 100 µM
- TGI [5]: 88.4 µM
- TGI [6]: 28.9 µM
- TGI [7]: 58.1 µM
- TGI [8]: 38 µM
- TGI [9]: 28.6 µM
- TGI [10]: 56.8 µM
- TGI [11]: 48.9 µM
- TGI [12]: > 100 µM
- TGI [13]: > 100 µM
- TGI [14]: 30.9 µM
- TGI [15]: > 100 µM
- TGI [16]: 26.8 µM
- TGI [17]: 40.8 µM
- TGI [18]: > 100 µM
- TGI [19]: 33.9 µM
- TGI [20]: 61 µM
- TGI [21]: > 100 µM
- TGI [22]: 36.4 µM
- TGI [23]: 31.1 µM
- TGI [24]: 33.2 µM
- TGI [25]: 40.7 µM
- TGI [26]: 30.9 µM
- TGI [27]: 32.6 µM
- TGI [28]: 71.9 µM
- TGI [29]: 29.2 µM
- TGI [30]: 32.7 µM
- TGI [31]: 53.1 µM
- TGI [32]: 32.5 µM
- TGI [33]: 53.4 µM
- TGI [34]: 29.8 µM
- TGI [35]: 38.7 µM
- TGI [36]: 30.7 µM
- TGI [37]: > 100 µM
- TGI [38]: 44.3 µM
- TGI [39]: > 100 µM
- TGI [40]: > 100 µM
- TGI [41]: 80.6 µM
- TGI [42]: > 100 µM
- TGI [43]: 41.9 µM
- TGI [44]: 48 µM
- TGI [45]: > 100 µM
- TGI [46]: 35 µM
- TGI [47]: 33.4 µM
- TGI [48]: 33.6 µM
- TGI [49]: 35.9 µM
- TGI [50]: 44.2 µM
- TGI [51]: 46.8 µM
- TGI [52]: 41.4 µM

Compound: COC(=O)C1=C(C(=O)OC)C2(c3ccccc3)OC1(c1ccccc1)c1cc3ccccc3cc12
- TGI [1]: 3.13 µM
- TGI [2]: 1.84 µM
- TGI [3]: 3.03 µM
- TGI [53]: 2.83 µM
- TGI [54]: 3.5 µM
- TGI [4]: 27.1 µM
- TGI [5]: 4.55 µM
- TGI [6]: 2.45 µM
- TGI [7]: 3.76 µM
- TGI [55]: 3.69 µM
- TGI [9]: 2.57 µM
- TGI [56]: 3.88 µM
- TGI [10]: 2.96 µM
- TGI [11]: 3.49 µM
- TGI [12]: 18.8 µM
- TGI [13]: 3.46 µM
- TGI [14]: 2.77 µM
- TGI [17]: 3.33 µM
- TGI [18]: 24.4 µM
- TGI [19]: 3.97 µM
- TGI [20]: 4.22 µM
- TGI [21]: 15.5 µM
- TGI [22]: 3.51 µM
- TGI [23]: 2.7 µM
- TGI [24]: 3.56 µM
- TGI [26]: 2.63 µM
- TGI [57]: 3.78 µM
- TGI [30]: 2.68 µM
- TGI [31]: 4.18 µM
- TGI [32]: 4.26 µM
- TGI [33]: 3.7 µM
- TGI [34]: 3.07 µM
- TGI [58]: 11.9 µM
- TGI [35]: 3.53 µM
- TGI [36]: 3.33 µM
- TGI [37]: 1.99 µM
- TGI [38]: 2.44 µM
- TGI [39]: 3.64 µM
- TGI [40]: 19.8 µM
- TGI [41]: 6.06 µM
- TGI [42]: 5.32 µM
- TGI [43]: 3.19 µM
- TGI [44]: 4.48 µM
- TGI [45]: 4.19 µM
- TGI [46]: 2.71 µM
- TGI [48]: 3.82 µM
- TGI [59]: 4.69 µM
- TGI [50]: 4.18 µM
- TGI [51]: 3.7 µM
- TGI [52]: 3.77 µM
